Data as given in paper PMC10920428 (Applied Microbiology and Biotechnology, 2024).

Target: T1, homogentisate solanesyltransferase (CrHST) (Chlamydomonas reinhardtii, UniProt A1JHN0)
T1 construct: gene HST; N-terminal GST tag (pDEST15), expressed in E. coli BL21 AI
Assay: biochemical

T1 sequence (A1JHN0 51-370): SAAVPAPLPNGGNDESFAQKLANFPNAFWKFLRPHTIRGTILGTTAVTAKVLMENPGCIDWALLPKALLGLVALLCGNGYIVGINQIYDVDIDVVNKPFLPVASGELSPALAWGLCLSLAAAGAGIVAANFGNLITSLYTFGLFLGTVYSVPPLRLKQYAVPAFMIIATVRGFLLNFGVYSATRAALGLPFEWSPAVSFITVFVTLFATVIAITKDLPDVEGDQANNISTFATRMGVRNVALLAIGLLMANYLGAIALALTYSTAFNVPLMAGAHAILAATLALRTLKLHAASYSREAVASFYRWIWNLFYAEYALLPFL

## Cc1cccc(C2CC2)c1Oc1nnc(Cl)cc1O [DMC, Des-Morpholinocarbony Cyclopyrimorate]
  IC50: 3.63 ± 0.53 µM
